Results as given in US6974801B2, “Inhibitors and methods of use thereof” (The Trustees of Dartmounth College, priority 2002, dated 2005).
Like-named read-outs stand apart in the source and are kept apart here. Blank lines part the entries; values can stand above or below the compound they belong to.

Tests used:
[1] = system: NO production induced by INF-γ in mouse macrophages; experiment: Inhibition of NO production induced by IFN-γ in mouse macrophages (Griess reaction); assay type: cell-based
Procedure: The procedure for determining IC50 on NO production induced by INF-γ in mouse macrophages is as follows. Macrophages were harvested from female mice injected intraperitoneally four days previously with 4% thioglycollate. These cells were seeded in 96-well tissue culture plates and incubated with 4 ng/mL INF-γ in the presence or absence of inhibitory test compounds. After 48 hours NO production, measured as […] by the Griess reaction, was determined. This method is described fully by Ding et al. (1990) and Bogdan and Ding, (1992).

[2] = target: T1, peroxisome proliferator-activated receptor γ (PPARγ) (Homo sapiens, UniProt P37231); conditions: Wang et al., 2000; cited from earlier work
T1 sequence (P37231 1-505): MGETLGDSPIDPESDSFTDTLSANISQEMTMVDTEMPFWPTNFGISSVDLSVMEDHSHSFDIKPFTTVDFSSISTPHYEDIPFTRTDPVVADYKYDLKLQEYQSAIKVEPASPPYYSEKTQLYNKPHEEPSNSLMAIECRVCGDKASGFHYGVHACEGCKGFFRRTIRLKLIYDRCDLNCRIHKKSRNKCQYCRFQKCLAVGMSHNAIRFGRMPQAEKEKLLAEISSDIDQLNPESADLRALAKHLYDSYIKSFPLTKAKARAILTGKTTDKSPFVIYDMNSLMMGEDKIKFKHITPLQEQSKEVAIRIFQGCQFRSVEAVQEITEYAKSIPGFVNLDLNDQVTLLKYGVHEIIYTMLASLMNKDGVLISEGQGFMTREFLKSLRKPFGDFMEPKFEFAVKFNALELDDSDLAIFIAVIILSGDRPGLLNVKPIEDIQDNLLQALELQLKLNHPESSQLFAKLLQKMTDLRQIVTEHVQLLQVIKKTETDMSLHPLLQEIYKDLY

[3] = system: human tumor cell lines, mouse 3T3-L1 fibroblasts, mouse macrophages; conditions: cell culture; previously reported (Suh et al., 1999); cited from earlier work
[4] = system: NO production induced by INF-γ in mouse macrophages; conditions: previously reported (Honda et al.); read-out: IC50 (level); cited from earlier work
[5] = Mus musculus, Macrophage; Table 2; NO production induced by IFN-γ, 48 h; tested 0.01 pM-1 μM (10-fold dilutions); average of several separate experiments
[6] = Mus musculus, Macrophage, 48 h, Table 1; NO production induced by IFN-γ; tested 0.01 pM-1 μM (10-fold dilutions); average of several separate experiments
[7] = Mus musculus, Macrophage; Table 1; NO production induced by IFN-γ, 48 h; tested 0.01 pM-1 μM (10-fold dilutions); average of several separate experiments
[8] = SAR on substituents at C-17, Tables 1-3

- IC50 [1, 5]: 0.03 nM
Structure (SMILES): CC1(C)CC[C@]2(C(=O)n3cnc(Br)c3)CC[C@]3(C)C(C(=O)C=C4[C@@]5(C)C=C(C#N)C(=O)C(C)(C)[C@@H]5CC[C@]43C)C2C1 (stereo partly shown) [Compound 15]

- IC50 [1, 6]: 0.44 nM
- IC50 ([1]; Mus musculus, Macrophage, 48 h, Table 3; NO production induced by IFN-γ; tested 0.01 pM-1 μM (10-fold dilutions); average of several separate experiments): 0.7 nM
Structure (SMILES): CC1(C)CC[C@]2(C(=O)O)CC[C@]3(C)[C@H](C(=O)C=C4[C@@]5(C)C=C(C#N)C(=O)C(C)(C)[C@@H]5CC[C@]43C)[C@@H]2C1 [CDDO, 2-cyano-3,12-dioxooleana-1,9(11)-dien-28-oic acid]
- ligand for PPARγ [2]: ligand
- concentrations at which potencies were found [3]: 10^−6 to 10^−9 M
- IC50 [4]: ~0.1 nM

- IC50 [1, 5]: 0.02 nM
Structure (SMILES): CCCc1nccn1C(=O)[C@]12CCC(C)(C)CC1C1C(=O)C=C3[C@@]4(C)C=C(C#N)C(=O)C(C)(C)[C@@H]4CC[C@@]3(C)[C@]1(C)CC2 (stereo partly shown) [Compound 12]

- IC50 [1, 5]: 0.1 nM
Structure (SMILES): CCc1nccn1C(=O)[C@]12CCC(C)(C)CC1C1C(=O)C=C3[C@@]4(C)C=C(C#N)C(=O)C(C)(C)[C@@H]4CC[C@@]3(C)[C@]1(C)CC2 (stereo partly shown) [Compound 11]

- IC50 [1, 7]: 0.0035 nM
Structure (SMILES): CC1(C)CC[C@]2(C#N)CC[C@]3(C)[C@H](C(=O)C=C4[C@@]5(C)C=C(C#N)C(=O)C(C)(C)[C@@H]5CC[C@]43C)[C@@H]2C1 [Compound 1, 2-cyano-3,12-dioxooleana-1,9(11)-dien-28-onitrile]
- potency compared with CDDO (SAR statement) [1, 8]: much more potent

- IC50 [1, 5]: 0.05 nM
Structure (SMILES): CC1(C)CC[C@]2(C(=O)n3ccnc3-c3ccccc3)CC[C@]3(C)C(C(=O)C=C4[C@@]5(C)C=C(C#N)C(=O)C(C)(C)[C@@H]5CC[C@]43C)C2C1 (stereo partly shown) [Compound 14]

- IC50 [1, 5]: 0.1 nM
Structure (SMILES): Cc1cn(C(=O)[C@]23CCC(C)(C)CC2C2C(=O)C=C4[C@@]5(C)C=C(C#N)C(=O)C(C)(C)[C@@H]5CC[C@@]4(C)[C@]2(C)CC3)c(C)n1 (stereo partly shown) [Compound 13]

- IC50 [1, 7]: 0.098 nM
Structure (SMILES): CC1(C)CC[C@]2(C(N)=O)CC[C@]3(C)[C@H](C(=O)C=C4[C@@]5(C)C=C(C#N)C(=O)C(C)(C)[C@@H]5CC[C@]43C)[C@@H]2C1 [Compound 3]
- potency compared with CDDO (SAR statement) [1, 8]: greater potency than CDDO

Continued, compound first:

Structure (SMILES): C[C@@H]1C[C@H]2[C@@H]3CCC4=CC(=O)C=C[C@]4(C)[C@@]3(F)[C@@H](O)C[C@]2(C)[C@@]1(O)C(=O)CO [Dexamethasone, reference compound]
- IC50 [1, 7]: 0.1 nM

Structure (SMILES): CC1(C)CC[C@]2(C(=O)O)CC[C@]3(C)C(=CC[C@@H]4[C@@]5(C)CC[C@H](O)C(C)(C)[C@@H]5CC[C@]43C)[C@@H]2C1 [Oleanolic acid (OA), Oleanolic acid, reference compound]
- IC50 [1, 6]: > 40000 nM
- IC50 ([1]; Mus musculus, Macrophage, 48 h, Table 2; NO production induced by IFN-γ; tested 0.01 pM-1 μM (10-fold dilutions); average of several separate experiments): > 40000 nM

Structure (SMILES): CC(=O)OC[C@H]1OC(OC(=O)[C@]23CCC(C)(C)CC2C2C(=O)C=C4[C@@]5(C)C=C(C#N)C(=O)C(C)(C)[C@@H]5CC[C@@]4(C)[C@]2(C)CC3)[C@H](OC(C)=O)C(OC(C)=O)[C@@H]1OC(C)=O (stereo partly shown) [Compound 2]
- IC50 [1, 7]: 0.07 nM

Structure (SMILES): COC(=O)[C@]12CCC(C)(C)C[C@H]1[C@H]1C(=O)C=C3[C@@]4(C)C=C(C#N)C(=O)C(C)(C)[C@@H]4CC[C@@]3(C)[C@]1(C)CC2 [CDDO methyl ester]
- IC50 [4]: ~0.1 nM

Structure (SMILES): Cc1cn(C(=O)[C@]23CCC(C)(C)CC2C2C(=O)C=C4[C@@]5(C)C=C(C#N)C(=O)C(C)(C)[C@@H]5CC[C@@]4(C)[C@]2(C)CC3)cn1 (stereo partly shown) [Compound 10, 1-(2-cyano-3,12-dioxooleana-1,9(11)-dien-28-oyl)-4-methylimidazole]
- potency compared with CDDO (SAR statement) [1, 8]: greatest potency

Structure (SMILES): CC(=O)OC[C@H]1O[C@@H](OC(=O)[C@]23CCC(C)(C)C[C@H]2[C@H]2C(=O)C=C4[C@@]5(C)C=C(C#N)C(=O)C(C)(C)[C@@H]5CC[C@@]4(C)[C@]2(C)CC3)[C@H](OC(C)=O)C(OC(C)=O)[C@H]1OC(C)=O (stereo partly shown) [Compound 18]
- IC50 ([1]; Mus musculus, Macrophage; Table 3; NO production induced by IFN-γ, 48 h; tested 0.01 pM-1 μM (10-fold dilutions); average of several separate experiments): 0.05 nM

Structure (SMILES): COC(=O)C12CCC(C)(C)CC1C1C(=O)C=C3C4(C)C=C(C(=O)O)C(=O)C(C)(C)C4CCC3(C)C1(C)CC2 (stereo not shown) [methyl 2-carboxy-3,12-dioxooleana-1,9(11)-dien-28-oate]
- IC50 [4]: ~0.1 nM
